Test results reported in the Deep4Chem optical property database.
Values joined by “and” are separate entries in the source; they are usually repeats but may differ in a detail not shown here. Equal values may be shown once. One block for each compound: values may come before it.

Experiment: solvent given as SMILES

absorption maximum (in C1CCOC1): 386 nm
Structure (SMILES): Cc1ccc(-c2cnc3nn4ccccc4c3c2)cc1

absorption maximum (in CC#N): 433 nm | absorption maximum (in CO): 433 nm | absorption maximum (in CS(C)=O): 434 nm | absorption maximum (in ClC(Cl)Cl): 434 nm
Structure (SMILES): CCC1=C(C)c2cc3c(OC)cc(OC)cc3c(=O)n2C1=O

absorption maximum (in CN(C)C=O): 319 nm
Structure (SMILES): Cc1nc2cccc(-c3nc4ccccc4s3)c2c(=O)[nH]1

absorption maximum (in ClCCl): 400 nm
Structure (SMILES): Clc1ccccc1N1c2c(sc3ccccc23)Sc2sc3ccccc3c21

absorption maximum (in CCO): 375 nm
Structure (SMILES): Cc1c(C)n2c(COC(=O)c3ccc(F)cc3)c(C)c(=O)n2c1=O

absorption maximum (in ClC(Cl)Cl): 471 nm
Structure (SMILES): COc1ccc2c(c1)c(C#N)cc1c(OC)c(OC)c3cc(C#N)c4cc(OC)ccc4c3c12

absorption maximum (in C1CCCCC1): 417 nm | absorption maximum (in CC#N): 416 nm | absorption maximum (in CO): 414 nm | absorption maximum (in ClCCl): 418 nm
Structure (SMILES): COc1c2ccccc2c(OC)c2c1c1c(C)ccc(OC)c1n2C

absorption maximum (in ClCCl): 348 nm
Structure (SMILES): CC(C)(C)c1ccc2c3ccccc3c3cncnc3c2c1

absorption maximum (in CC#N): 504 nm | absorption maximum (in CCCCCC): 514 nm | absorption maximum (in CCOC(C)=O): 506 nm | absorption maximum (in CO): 497 nm | absorption maximum (in ClCCl): 515 nm
Structure (SMILES): COC1=[N+]2C(=C(c3ccccc3)c3ccc(OC)n3[B-]2(F)F)C=C1SC#N

absorption maximum (in C1CCOC1): 351 nm
Structure (SMILES): CCCCOc1cc2ccccc2c2c1oc1cc3ccccc3cc12

absorption maximum (in CO): 291 nm | absorption maximum (in O): 290 nm
Structure (SMILES): CCOC(=O)CCOc1ccccc1C(c1c(C)[nH]c2ccccc12)c1c(C)[nH]c2ccccc12

absorption maximum (in ClC(Cl)Cl): 393 nm
Structure (SMILES): COc1ccc(N(c2ccc(OC)cc2)c2sc(-c3ccc(Cl)cc3)nc2-c2ccccc2)cc1

absorption maximum (in ClCCl): 382 nm
Structure (SMILES): CCCCC(CC)COc1ccc2nc(-c3ccc(-c4cccs4)s3)sc2c1 (configuration not stated)

absorption maximum (in CCO): 612 nm | absorption maximum (in ClCCl): 619 nm | absorption maximum (in O): 604 nm
Structure (SMILES): CC[N+](CC)=c1ccc2cc3c(oc-2c1)-c1ccc(N(C)C)cc1CC3

absorption maximum (in CC#N): 325 nm
Structure (SMILES): CN(C)c1ccc(-c2nc3ccccc3n2-c2ccccc2)cc1

absorption maximum (in CCO): 590 nm | absorption maximum (in O): 580 nm
Structure (SMILES): CC/[NH+]=c1\cc2oc3cc(NCCC(=O)NC(C(=O)OC)C(C)C)c4ccccc4c3nc-2cc1C (configuration not stated)

absorption maximum (in C1CCOC1): 349 nm
Structure (SMILES): Cc1cc(C2=C(c3cc(C)sc3C)S(=O)(=O)c3ccccc32)c(C)s1

absorption maximum (in ClC(Cl)Cl): 611 nm
Structure (SMILES): CCCCCCc1cc(-c2ccc3c(c2)C2CCCC2N3c2ccc3c(c2)C(C)(C)c2ccccc2-3)sc1/C=C1\C(=O)c2ccc(C(=O)O)cc2C1=O (configuration not stated)

absorption maximum (in CCCCCC): 536 nm
Structure (SMILES): CC(C)[Si](C#Cc1c2ccccc2c(C#C[Si](C(C)C)(C(C)C)C(C)C)c2nc3c(ccc4cc5ccccc5cc43)nc12)(C(C)C)C(C)C

absorption maximum (in O): 413 nm
Structure (SMILES): O=C(O)c1cccc2c(=O)c3ccccc3[nH]c12

absorption maximum (in ClCCl): 485 nm
Structure (SMILES): CCCCN1C(=O)C2=C(c3ccc(-c4ccccc4)cc3)NC(=O)C2=C1c1ccc(-c2ccccc2)cc1

absorption maximum (in CS(C)=O): 553 nm
Structure (SMILES): C[N+]1=C(/C=C/C=C2/N(CCCS(=O)(=O)[O-])c3ccccc3C2(C)C)C(C)(C)c2ccccc21

absorption maximum (in O): 646 nm
Structure (SMILES): Cc1ccc(N(C)C)cc1C1=C2C=CC(=[N+](C)C)C=C2[Si](C)(C)c2cc(N(C)C)ccc21

Further lines, the compound ahead of its results:

Structure (SMILES): CC1(C)C(/C=C/C=C/C=C/C=C2/N(S(=O)(=O)[O-])c3ccc(S(=O)(=O)[O-])cc3C2(C)C)=[N+](S(=O)(=O)[O-])c2ccc(S(=O)(=O)[O-])cc21
absorption maximum (in CO): 755 nm

Structure (SMILES): c1ccc(N(c2ccccc2)c2ccc(-c3nc4ccccc4n3-c3ccccc3)cc2)cc1
absorption maximum (in CC#N): 339 nm

Structure (SMILES): CC1(CCCCC(=O)NCCCCCCO)C(/C=C/C=C/C=C2/N(CCCS(=O)(=O)[O-])c3ccc(S(=O)(=O)[O-])cc3C2(C)C)=[N+](CCCS(=O)(=O)[O-])c2ccc(S(=O)(=O)[O-])cc21 (configuration not stated)
absorption maximum (in O): 651 nm

Structure (SMILES): CC(=O)c1ccc(/N=N/c2ccc(Nc3ccccc3)cc2)cc1
absorption maximum (in C1CCOC1): 438 nm | absorption maximum (in CC#N): 432 nm | absorption maximum (in CC(=O)O): 544 nm | absorption maximum (in CN(C)C=O): 452 nm | absorption maximum (in CO): 443 nm | absorption maximum (in CS(C)=O): 459 nm | absorption maximum (in Cc1ccccc1): 429 nm | absorption maximum (in ClC(Cl)Cl): 427 nm | absorption maximum (in ClCCl): 432 nm

Structure (SMILES): c1ccc(-c2nc(-c3ccccc3)nc(-c3cc(-n4c5ccccc5c5ncccc54)c(-n4c5ccccc5c5ccccc54)c(-n4c5ccccc5c5ncccc54)c3)n2)cc1
absorption maximum (in Cc1ccccc1): 376.56 nm

Structure (SMILES): CC(=O)OCCOCCN1C(=O)c2cc(NCCOCCO)c3c4c(cc(NCCOCCO)c(c24)C1=O)C(=O)N(CCOCCOC(C)=O)C3=O
absorption maximum (in CO): 604 nm | absorption maximum (in ClC(Cl)Cl): 610 nm | absorption maximum (in O): 622 nm

Structure (SMILES): O=C(O)c1ccc(C2=C(/C=C/c3[se]c4ccccc4[n+]3CCCCS(=O)(=O)[O-])CCC/C2=C\C=C2/[Se]c3ccccc3N2CCCCS(=O)(=O)[O-])cc1
absorption maximum (in CO): 800 nm

Structure (SMILES): c1ccc(-c2nc(-c3ccccc3)nc(-c3ccc(N4c5ccccc5[Si](c5ccccc5)(c5ccccc5)c5ccccc54)cc3)n2)cc1
absorption maximum (in Cc1ccccc1): 376.66 nm

Structure (SMILES): CCOC(=O)c1cc2ccc3ccccc3c2c(C#N)c1N
absorption maximum (in Cc1ccccc1): 435 nm

Structure (SMILES): COc1ccc(-c2nc(-c3ccc(-c4nc(-c5ccc(OC)cc5)c(-c5ccc(OC)cc5)[nH]4)cc3)[nH]c2-c2ccc(OC)cc2)cc1
absorption maximum (in CC#N): 330 nm and 365 nm

Structure (SMILES): CCCCCCCCOc1ccc(-c2c3c4n(c(-c5ccc(OCCCCCCCC)cc5)c3c3n2[B-](F)(F)[n+]2c(sc5ccccc52)N=3)[B-](F)(F)[n+]2c(sc3ccccc32)N=4)cc1
absorption maximum (in ClC(Cl)Cl): 655 nm

Structure (SMILES): CN(C)c1ccc(C#Cc2cc(C#Cc3ccc(C(F)(F)F)cc3)c3ccc4c(C#Cc5ccc(N(C)C)cc5)cc(C#Cc5ccc(C(F)(F)F)cc5)c5ccc2c3c45)cc1
absorption maximum (in ClCCl): 509 nm

Structure (SMILES): CC[N+]1(CC)CN2C(=N1)C(C(=O)O)=Cc1cc(Oc3ccccc3)ccc12
absorption maximum (in O): 387 nm

Structure (SMILES): c1ccc(-c2nc(-c3ccccc3)nc(-c3ccc(N4c5ccccc5C5(c6ccccc64)c4ccccc4N(c4ccc(-c6nc(-c7ccccc7)nc(-c7ccccc7)n6)cc4)c4ccccc45)cc3)n2)cc1
absorption maximum (in Cc1ccccc1): 400 nm

Structure (SMILES): CC(=O)[B-]1(C(C)=O)OC(c2ccccc2)=CC(c2ccc3ccccc3c2)=[O+]1
absorption maximum (in CC#N): 400 nm | absorption maximum (in ClC(Cl)(Cl)Cl): 400 nm

Structure (SMILES): CCN(CC)c1ccc2c(c1)oc(=O)c1c(=O)oc3cc(C#Cc4ccc(C#N)cc4)ccc3c12
absorption maximum (in CS(C)=O): 481 nm | absorption maximum (in ClCCl): 476 nm

Structure (SMILES): C1=C2C3=C(C4=[N+]2[B-]2(Oc5ccccc54)Oc4ccccc4-c4c5c(c1n42)C1CCC5CC1)C1CCC3CC1 (configuration not stated)
absorption maximum (in ClCCl): 626 nm

Structure (SMILES): CCCCCCCCCCCCN1C(=O)c2c(c3ccc4cc(-c5ccc(N(C)C)cc5)c(OC)cc4c3c3c2ccc2cc(-c4ccc(N(C)C)cc4)c(OC)cc23)C1=O
absorption maximum (in ClCCl): 477 nm

Structure (SMILES): c1ccc(-c2nc(-c3ccc(-c4ccc(-c5ccc(-c6nc(-c7ccccc7)c(-c7ccccc7)o6)cc5)cc4)cc3)oc2-c2ccccc2)cc1
absorption maximum (in C1COCCO1): 352 nm

Structure (SMILES): CC1(C)Nc2cc3nc4cc(F)c(F)cc4nc3cc2N1
absorption maximum (in CCO): 440 nm

Structure (SMILES): CCCCCCCCCCCCCCCCOc1cc(C#Cc2ccc3ccccc3c2-c2c(C#Cc3cc(OCCCCCCCCCCCCCCCC)c(C#Cc4ccc(C=C(C#N)C#N)cc4)cc3OCCCCCCCCCCCCCCCC)ccc3ccccc23)c(OCCCCCCCCCCCCCCCC)cc1C#Cc1ccc(C=C(C#N)C#N)cc1
absorption maximum (in Brc1ccccc1): 442 nm | absorption maximum (in C1CCCCC1): 444 nm | absorption maximum (in C1CCOC1): 425 nm | absorption maximum (in C1COCCO1): 425 nm | absorption maximum (in CCCCCC): 442 nm | absorption maximum (in CCCCCCCCO): 431 nm | absorption maximum (in CCCCOCCCC): 435 nm | absorption maximum (in CCOC(C)=O): 426 nm | absorption maximum (in CCOCC): 429 nm | absorption maximum (in Cc1ccccc1): 436 nm | absorption maximum (in ClC(Cl)(Cl)Cl): 447 nm | absorption maximum (in ClC(Cl)Cl): 446 nm | absorption maximum (in ClCCl): 436 nm

Structure (SMILES): CN(C)c1ccc(/C=C/c2cc(/C=C/c3ccc(N(C)C)cc3)nc(/C=C/c3ccc(N(C)C)cc3)n2)cc1
absorption maximum (in ClCCl): 402 nm

Structure (SMILES): CCN1CCN(c2ccc(/N=N/c3ccc(C#N)cc3)cc2)CC1
absorption maximum (in CCOC(C)=O): 428 nm

Structure (SMILES): Cc1cccc(C)c1-c1cc2c(C)c3c4ccc5nc6c(ccc7c8c(C)c9cc(-c%10c(C)cccc%10C)c(-c%10c(C)cccc%10C)cc9c(C)c8c76)nc5c4c3c(C)c2cc1-c1c(C)cccc1C
absorption maximum (in ClC(Cl)Cl): 501 nm

Structure (SMILES): CCN(CC)c1ccc2c(c1)C(C)(C)C(=O)C=C2
absorption maximum (in O): 429 nm

Structure (SMILES): CC1=CC(C)=[N+]2C1=C(c1ccc(-c3ccc(OS(=O)(=O)c4ccc([N+](=O)[O-])cc4[N+](=O)[O-])cc3)s1)c1c(C)cc(C)n1[B-]2(F)F
absorption maximum (in CO): 512 nm | absorption maximum (in Cc1ccccc1): 518 nm | absorption maximum (in ClCCl): 515 nm

Structure (SMILES): CCCCn1c2ccc(C#Cc3cccs3)cc2c2c1c1c3ccc(C#Cc4cccs4)cc3n(CCCC)c1c1c3ccc(C#Cc4cccs4)cc3n(CCCC)c21
absorption maximum (in C1CCOC1): 348 nm

Structure (SMILES): c1cc2c3c(c1)-c1cccc4cccc(c14)B3c1cccc3cccc-2c13
absorption maximum (in Cc1ccccc1): 466 nm

Structure (SMILES): c1ccc(Nc2nc(Nc3ccccc3)nc(Nc3ccc4cc5ccccc5cc4c3)n2)cc1
absorption maximum (in C1COCCO1): 402 nm | absorption maximum (in CC#N): 401 nm | absorption maximum (in CCCCOCCCC): 402 nm | absorption maximum (in CCOC(C)=O): 402 nm

Structure (SMILES): O=C(O)CCCc1cc2ccc3cccc4ccc(c1)c2c34
absorption maximum (in CO): 374 nm

Structure (SMILES): COc1cc2c(cc1OC)C1=C[C@H](c3ccc(C)cc3)C3(C(C#N)=C(C#N)N1CC2)c1cc(Cl)ccc1-c1ccc(Cl)cc13
absorption maximum (in ClCCl): 315 nm

Structure (SMILES): N#C/C(=C/Nc1ccc(C#N)cc1)c1nc(-c2ccccc2)cs1
absorption maximum (in CC#N): 372 nm | absorption maximum (in CCO): 373 nm | absorption maximum (in CN(C)C=O): 376 nm | absorption maximum (in Cc1ccccc1): 377 nm | absorption maximum (in ClCCl): 375 nm

Structure (SMILES): Nc1cc[nH]c(=S)n1
absorption maximum (in CC#N): 283 nm | absorption maximum (in CCO): 280 nm | absorption maximum (in CCOC(C)=O): 286 nm | absorption maximum (in CO): 278 nm | absorption maximum (in CS(C)=O): 285 nm | absorption maximum (in O): 269 nm

Structure (SMILES): CCCCCCCCN(CCCCCCCC)c1ccc(/C=C/c2ccc(C#Cc3ccc(-c4ccc(C#Cc5ccc(/C=C/c6ccc(N(CCCCCCCC)CCCCCCCC)cc6)cc5)cc4)cc3)cc2)cc1
absorption maximum (in Cc1ccccc1): 406 nm

Structure (SMILES): CC(C)(C)c1ccc(C(C)(C)C)c(N2C(=O)c3cccc4c(-c5ccc(-c6ccc(N(c7ccccc7)c7ccccc7)cc6)s5)ccc(c34)C2=O)c1
absorption maximum (in CO): 447 nm | absorption maximum (in CS(C)=O): 445 nm | absorption maximum (in Cc1ccccc1): 440 nm
